{"source": "patent US12570682B2", "about": "“Method for increasing bulk density of nicotinamide mononucleotide crystal and crystal thereof” (BONTAC BIO-ENGINEERING (SHENZHEN) CO., LTD, priority 2021, dated 2026)", "key": {"[1]": {"settings": "prior-art crystals (CN108697722A; CN11269505A embodiment data); cited from earlier work"}, "[2]": {"settings": "CN11269505A embodiment data; cited from earlier work"}, "[3]": {"experiment": "loose bulk density measurement of nicotinamide mononucleotide crystals (sieve, weigh, graduated cylinder)", "assay_type": "physicochemical", "experimental": "Bulk densities mentioned below are all loose bulk densities, and specific values are measured by the following method: taking an object to be tested, sieving the object (1.00 mm No. 18), accurately weighing the object, slowly pouring the object into a glass graduated cylinder, scraping the top, recording an apparent volume, and calculating the bulk density; and taking 3 same samples for parallel measurement, recording the readings, and using an average value as a measurement result."}, "[4]": {"settings": "loose bulk density, average of 3 parallel samples"}}, "note": "Read-outs that look alike come from different tables or passages of the source."}
{"smiles": "NC(=O)c1ccc[n+]([C@@H]2O[C@H](COP(=O)([O-])O)[C@@H](O)[C@H]2O)c1", "note": "[high-density NMN, nicotinamide mononucleotide]", "values": [{"measurement": "Bulk density", "setting": "[1]", "value": 0.52, "unit": "g/mL"}, {"measurement": "tap density", "setting": "[2]", "value": 0.71, "unit": "g/mL"}]}
{"smiles": "NC(=O)c1ccc[n+]([C@@H]2O[C@H](COP(=O)([O-])O)[C@@H](O)[C@H]2O)c1", "note": "[Example 5, nicotinamide mononucleotide]", "values": [{"measurement": "Bulk density", "setting": "[3]; [4]", "value": 1.17, "unit": "g/mL"}]}
{"smiles": "NC(=O)c1ccc[n+]([C@@H]2O[C@H](COP(=O)([O-])O)[C@@H](O)[C@H]2O)c1", "note": "[Comparative Example 1, nicotinamide mononucleotide]", "values": [{"measurement": "Bulk density", "setting": "[3]; [4]", "value": 0.23, "unit": "g/mL"}]}
{"smiles": "NC(=O)c1ccc[n+]([C@@H]2O[C@H](COP(=O)([O-])O)[C@@H](O)[C@H]2O)c1", "note": "[Comparative Example 4, nicotinamide mononucleotide]", "values": [{"measurement": "Bulk density", "setting": "[3]; [4]", "value": 0.56, "unit": "g/mL"}]}
{"smiles": "NC(=O)c1ccc[n+]([C@@H]2O[C@H](COP(=O)([O-])O)[C@@H](O)[C@H]2O)c1", "note": "[Example 6, nicotinamide mononucleotide]", "values": [{"measurement": "Bulk density", "setting": "[3]; [4]", "value": 1.21, "unit": "g/mL"}]}
{"smiles": "NC(=O)c1ccc[n+]([C@@H]2O[C@H](COP(=O)([O-])O)[C@@H](O)[C@H]2O)c1", "note": "[Example 4, nicotinamide mononucleotide]", "values": [{"measurement": "Bulk density", "setting": "[3]; [4]", "value": 1.02, "unit": "g/mL"}]}
{"smiles": "NC(=O)c1ccc[n+]([C@@H]2O[C@H](COP(=O)([O-])O)[C@@H](O)[C@H]2O)c1", "note": "[Example 8, nicotinamide mononucleotide]", "values": [{"measurement": "Bulk density", "setting": "[3]; [4]", "value": 1.24, "unit": "g/mL"}]}
{"smiles": "NC(=O)c1ccc[n+]([C@@H]2O[C@H](COP(=O)([O-])O)[C@@H](O)[C@H]2O)c1", "note": "[form 1, β-nicotinamide mononucleotide, reference compound]", "values": [{"measurement": "Bulk density", "setting": "[1]", "value": "about 0.2 g/ml"}, {"measurement": "Bulk density", "setting": "[3]; loose bulk density, average of 3 parallel samples, listed as nicotinamide mononucleotide anhydrous crystal", "value": 0.20, "unit": "g/mL"}]}
{"smiles": "NC(=O)c1ccc[n+]([C@@H]2O[C@H](COP(=O)([O-])O)[C@@H](O)[C@H]2O)c1", "note": "[Example 1, nicotinamide mononucleotide]", "values": [{"measurement": "Bulk density", "setting": "[3]; water content of semi-solid 1%, pH 3.5, ethanol, cooling 10° C./h to 10° C.", "value": 1.05, "unit": "g/mL"}, {"measurement": "Bulk density", "setting": "[3]; water content of semi-solid 5%, pH 3.5, ethanol, cooling 10° C./h to 10° C.", "value": 1.03, "unit": "g/mL"}, {"measurement": "Bulk density", "setting": "[3]; water content of semi-solid 10%, pH 3.5, ethanol, cooling 10° C./h to 10° C.", "value": 0.89, "unit": "g/mL"}, {"measurement": "Bulk density", "setting": "[3]; water content of semi-solid 15%, pH 3.5, ethanol, cooling 10° C./h to 10° C.", "value": 0.77, "unit": "g/mL"}, {"measurement": "Bulk density", "setting": "[3]; water content of semi-solid 20%, pH 3.5, ethanol, cooling 10° C./h to 10° C.", "value": 0.67, "unit": "g/mL"}, {"measurement": "Bulk density", "setting": "[3]; water content of semi-solid 25%, pH 3.5, ethanol, cooling 10° C./h to 10° C.", "value": 0.56, "unit": "g/mL"}, {"measurement": "Bulk density", "setting": "[3]; water content of semi-solid 35%, pH 3.5, ethanol, cooling 10° C./h to 10° C.", "value": 0.44, "unit": "g/mL"}, {"measurement": "Bulk density", "setting": "[3]; water content of semi-solid 50%, pH 3.5, ethanol, cooling 10° C./h to 10° C.", "value": 0.33, "unit": "g/mL"}, {"measurement": "Bulk density", "setting": "[3]; water content of semi-solid 75%, pH 3.5, ethanol, cooling 10° C./h to 10° C.", "value": 0.26, "unit": "g/mL"}]}
{"smiles": "NC(=O)c1ccc[n+]([C@@H]2O[C@H](COP(=O)([O-])O)[C@@H](O)[C@H]2O)c1", "note": "[Comparative Example 3, nicotinamide mononucleotide]", "values": [{"measurement": "Bulk density", "setting": "[3]; [4]", "value": 0.40, "unit": "g/mL"}]}
{"smiles": "NC(=O)c1ccc[n+]([C@@H]2O[C@H](COP(=O)([O-])O)[C@@H](O)[C@H]2O)c1", "note": "[Example 3, nicotinamide mononucleotide]", "values": [{"measurement": "Bulk density", "setting": "[3]; pH value of aqueous solution of NMN 3.5, water content 10%, cooling 10° C./h to 10° C.", "value": 0.89, "unit": "g/mL"}, {"measurement": "Bulk density", "setting": "[3]; pH value of aqueous solution of NMN 4.5, water content 10%, cooling 10° C./h to 10° C.", "value": 1.08, "unit": "g/mL"}, {"measurement": "Bulk density", "setting": "[3]; pH value of aqueous solution of NMN 5.0, water content 10%, cooling 10° C./h to 10° C.", "value": 1.09, "unit": "g/mL"}, {"measurement": "Bulk density", "setting": "[3]; pH value of aqueous solution of NMN 5.5, water content 10%, cooling 10° C./h to 10° C.", "value": 1.09, "unit": "g/mL"}, {"measurement": "Bulk density", "setting": "[3]; pH value of aqueous solution of NMN 6.0, water content 10%, cooling 10° C./h to 10° C.", "value": 1.07, "unit": "g/mL"}, {"measurement": "Bulk density", "setting": "[3]; pH value of aqueous solution of NMN 6.5, water content 10%, cooling 10° C./h to 10° C.", "value": 1.08, "unit": "g/mL"}, {"measurement": "Bulk density", "setting": "[3]; pH value of aqueous solution of NMN 7.0, water content 10%, cooling 10° C./h to 10° C.", "value": 0.81, "unit": "g/mL"}]}
{"smiles": "NC(=O)c1ccc[n+]([C@@H]2O[C@H](COP(=O)([O-])O)[C@@H](O)[C@H]2O)c1", "note": "[Example 2, nicotinamide mononucleotide]", "values": [{"measurement": "Bulk density", "setting": "[3]; cooling rate 1, crystallization end temperature 10, water content 10%, pH 3.5", "value": 0.93, "unit": "g/mL"}, {"measurement": "Bulk density", "setting": "[3]; cooling rate 1, crystallization end temperature 18, water content 10%, pH 3.5", "value": 0.88, "unit": "g/mL"}, {"measurement": "Bulk density", "setting": "[3]; cooling rate 3, crystallization end temperature 10, water content 10%, pH 3.5", "value": 0.93, "unit": "g/mL"}, {"measurement": "Bulk density", "setting": "[3]; cooling rate 5, crystallization end temperature 5, water content 10%, pH 3.5", "value": 0.92, "unit": "g/mL"}, {"measurement": "Bulk density", "setting": "[3]; cooling rate 5, crystallization end temperature 10, water content 10%, pH 3.5", "value": 0.92, "unit": "g/mL"}, {"measurement": "Bulk density", "setting": "[3]; cooling rate 5, crystallization end temperature 18, water content 10%, pH 3.5", "value": 0.88, "unit": "g/mL"}, {"measurement": "Bulk density", "setting": "[3]; cooling rate 10, crystallization end temperature 5, water content 10%, pH 3.5", "value": 0.88, "unit": "g/mL"}, {"measurement": "Bulk density", "setting": "[3]; cooling rate 10, crystallization end temperature 10, water content 10%, pH 3.5", "value": 0.89, "unit": "g/mL"}, {"measurement": "Bulk density", "setting": "[3]; cooling rate 10, crystallization end temperature 18, water content 10%, pH 3.5", "value": 0.84, "unit": "g/mL"}, {"measurement": "Bulk density", "setting": "[3]; cooling rate 15, crystallization end temperature 8, water content 10%, pH 3.5", "value": 0.84, "unit": "g/mL"}, {"measurement": "Bulk density", "setting": "[3]; cooling rate 15, crystallization end temperature 10, water content 10%, pH 3.5", "value": 0.84, "unit": "g/mL"}, {"measurement": "Bulk density", "setting": "[3]; cooling rate 15, crystallization end temperature 18, water content 10%, pH 3.5", "value": 0.82, "unit": "g/mL"}, {"measurement": "Bulk density", "setting": "[3]; cooling rate 15, crystallization end temperature 25, water content 10%, pH 3.5", "value": 0.34, "unit": "g/mL"}, {"measurement": "Bulk density", "setting": "[3]; cooling rate 20, crystallization end temperature 10, water content 10%, pH 3.5", "value": 0.35, "unit": "g/mL"}]}
{"smiles": "NC(=O)c1ccc[n+]([C@@H]2O[C@H](COP(=O)([O-])O)[C@@H](O)[C@H]2O)c1", "note": "[form 2, β-nicotinamide mononucleotide]", "values": [{"measurement": "Bulk density", "setting": "[1]", "value": "about 0.2 g/ml"}]}
{"smiles": "NC(=O)c1ccc[n+]([C@@H]2O[C@H](COP(=O)([O-])O)[C@@H](O)[C@H]2O)c1", "note": "[Comparative Example 2, nicotinamide mononucleotide]", "values": [{"measurement": "Bulk density", "setting": "[3]; [4]", "value": 0.20, "unit": "g/mL"}]}
{"smiles": "NC(=O)c1ccc[n+]([C@@H]2O[C@H](COP(=O)([O-])O)[C@@H](O)[C@H]2O)c1", "note": "[Example 7, nicotinamide mononucleotide]", "values": [{"measurement": "Bulk density", "setting": "[3]; [4]", "value": 0.95, "unit": "g/mL"}]}
